We go through eleven compounds from ChEMBL document CHEMBL1782052, “Artemisinin-dipeptidyl vinyl sulfone hybrid molecules: design, synthesis and preliminary SAR for antiplasmodial activity and falcipain-2 inhibition” (Bioorg Med Chem Lett, 2009).

A short description of assay [1]: Inhibition of Plasmodium chabaudi recombinant chabaupain expressed in Escherichia coli.
The subject of assay [2] is Plasmodium falciparum. Put plainly: Antiplasmodial activity against chloroquine-resistant Plasmodium falciparum W2 synchronized ring stage parasites infected in erythrocytes assessed as reduction in parasitemia after 48 hrs by Giemsa staining. The format is functional, organism-based. The settings on record: W2, 48 h.
The nature of assay [3]: Inhibition of Plasmodium falciparum recombinant falcipain-2 incubated for 30 mins at room temperature before addition of substrate benzoxycarbonyl-Leu-Arg-7-amino-4-methyl-coumarin by spectrofluorometry.
Assay [4] deals with Plasmodium falciparum. Put plainly: Antiplasmodial activity against chloroquine and pyrimethamine-resistant Plasmodium falciparum V1/S. Format: functional, organism-based.
For assay [5], the system named is Plasmodium falciparum. Briefly: Antiplasmodial activity against atovaquone-resistant Plasmodium falciparum FCR3. Format: functional, organism-based.
Assay [6] concerns Plasmodium falciparum. Briefly: Antiplasmodial activity against chloroquine-sensitive and mefloquine-resistant Plasmodium falciparum D6. The format is functional, organism-based.
For assay [7], the system named is Plasmodium falciparum. Briefly: Antiplasmodial activity against chloroquine-sensitive Plasmodium falciparum 3D7. Format: functional, organism-based.
Assay [8] in a line: Inhibition of falcipain-2 in Plasmodium falciparum trophozoite extracts incubated for 30 mins at room temperature before addition of substrate benzyloxycarbonyl-Phe-Arg-7-amino-4-methyl-coumarin by spectrofluorometry.
Assay [9] concerns Plasmodium falciparum. Briefly: Antiplasmodial activity against Plasmodium falciparum Itg2 synchronized ring stage parasites infected in erythrocytes assessed as reduction in parasitemia after 48 hrs by Giemsa staining. Format: functional, organism-based. Particulars: Itg2, 48 h.

With `CC(C)C[C@H](NC(=O)c1ccc(CO[C@H]2O[C@@H]3O[C@@]4(C)CC[C@H]5[C@H](C)CC[C@@H]([C@H]2C)[C@@]35OO4)cc1)C(=O)N[C@H](/C=C/S(=O)(=O)c1ccccc1)CCc1ccccc1`, the IC50 in [1] stood at 2290 nM; in the assay with Plasmodium falciparum [2] it was 2.08 nM; in assay [3], 4950 nM.

On to `C[C@H]1[C@@H](OCc2ccc(C(=O)NCC(=O)N[C@H](/C=C/S(=O)(=O)c3ccccc3)Cc3ccccc3)cc2)O[C@@H]2O[C@@]3(C)CC[C@H]4[C@H](C)CC[C@@H]1[C@@]24OO3`, for which the half-inhibitory concentration (IC50) with Plasmodium falciparum [4] came to 1.59 nM; in the assay on Plasmodium falciparum [5], 1.75 nM; in the assay on Plasmodium falciparum [6], 4.71 nM; in [1], 56800 nM; in the assay with Plasmodium falciparum [2] it was 4.09 nM; in assay [3], 16500 nM. In addition, in the assay with Plasmodium falciparum [7], the IC50 was 3.11 nM.

Consider `C[C@H]1[C@@H](OCc2ccc(C(=O)N[C@@H](Cc3ccccc3)C(=O)N[C@H](/C=C/S(=O)(=O)c3ccccc3)Cc3ccccc3)cc2)O[C@@H]2O[C@@]3(C)CC[C@H]4[C@H](C)CC[C@@H]1[C@@]24OO3`, for which the IC50 in [1] came to 400 nM; in the assay on Plasmodium falciparum [2] it was 2.27 nM; in [3], 22400 nM.

In the case of `C[C@H]1[C@@H](OCc2ccc(C(=O)N[C@@H](Cc3ccccc3)C(=O)N[C@H](/C=C/S(=O)(=O)c3ccccc3)CCc3ccccc3)cc2)O[C@@H]2O[C@@]3(C)CC[C@H]4[C@H](C)CC[C@@H]1[C@@]24OO3`, the IC50 in assay [1] stood at 538 nM; in the assay on Plasmodium falciparum [2], 3.94 nM; in [3], 9220 nM.

`C[C@H]1[C@@H](OCc2ccc(C(=O)N[C@@H](Cc3ccccc3)C(=O)N[C@H](/C=C/S(C)(=O)=O)CCc3ccccc3)cc2)O[C@@H]2O[C@@]3(C)CC[C@H]4[C@H](C)CC[C@@H]1[C@@]24OO3`: the IC50 in the assay with Plasmodium falciparum [4] was 2.25 nM; in the assay with Plasmodium falciparum [5] it was 2 nM; with Plasmodium falciparum [2], 4.81 nM; in [3], 21600 nM; with Plasmodium falciparum [7], 2.5 nM.

Take `CC(C)C[C@H](NC(=O)c1ccc(CO[C@H]2O[C@@H]3O[C@@]4(C)CC[C@H]5[C@H](C)CC[C@@H]([C@H]2C)[C@@]35OO4)cc1)C(=O)N[C@H](/C=C/S(C)(=O)=O)CCc1ccccc1`: the IC50 in the assay with Plasmodium falciparum [4] turned out to be 1.65 nM; in the assay with Plasmodium falciparum [5], 1.89 nM; in the assay on Plasmodium falciparum [6], 4.96 nM; in the assay with Plasmodium falciparum [2] it was 4.21 nM; in assay [3], 350 nM; in the assay with Plasmodium falciparum [7], 2.48 nM.

Take `CC(C)C[C@H](NC(=O)OC(C)(C)C)C(=O)N[C@H](/C=C/S(=O)(=O)c1ccccc1)CCc1ccccc1`: the IC50 with Plasmodium falciparum [2] was over 10000 nM; in assay [3], 210 nM.

Take `CC(C)C[C@H](NC(=O)N1CCOCC1)C(=O)N[C@H](/C=C/S(=O)(=O)c1ccccc1)CCc1ccccc1`: the values for the IC50 (in assay [8]; with Plasmodium falciparum [9]) were 3 nM and 22 nM, respectively.

On to `C[C@@H]1[C@H](OCc2ccc(C(=O)O)cc2)O[C@@H]2O[C@@]3(C)CC[C@@H]4[C@@H](C)CC[C@@H]1[C@]24OO3` (stereo in doubt) [ARTELINIC ACID], for which, in the assay on Plasmodium falciparum [2], the half-maximal inhibitory concentration (IC50) worked out at 5.66 nM.

As for `C[C@@H]1CC[C@H]2[C@@H](C)C(=O)O[C@@H]3O[C@@]4(C)CC[C@@H]1[C@]32OO4` [ARTEMISININ], the IC50 came out at 4.24 nM in the assay on Plasmodium falciparum [4], 5.38 nM in the assay on Plasmodium falciparum [5], 12 nM in the assay on Plasmodium falciparum [2] and 9.71 nM in the assay on Plasmodium falciparum [7].

For `CC(C)C[C@H](NC(=O)[C@H]1O[C@@H]1C(=O)O)C(=O)NCCCCN=C(N)N` [E-64], the IC50 in assay [1] was 9 nM; in assay [3] it was 84 nM.
